Results on nine molecules are retold here after patent US7687623B2, “Pyrrolobenzodiazepines and heterocyclic carboxamide derivatives as follicle stimulating hormone receptor (FSH-R) antagonists” (Wyeth LLC, priority 2005, dated 2010).

A value given as a limit tells only on which side of the number the result lay.

For one data set, the target named is T1, human FSH receptor (Homo sapiens, UniProt P23945).
T1 construct: host or cells: CHO-K1 (CHO FSH-R 6CRE-Luc, 1D7 cells)
T1 sequence (P23945 18-695): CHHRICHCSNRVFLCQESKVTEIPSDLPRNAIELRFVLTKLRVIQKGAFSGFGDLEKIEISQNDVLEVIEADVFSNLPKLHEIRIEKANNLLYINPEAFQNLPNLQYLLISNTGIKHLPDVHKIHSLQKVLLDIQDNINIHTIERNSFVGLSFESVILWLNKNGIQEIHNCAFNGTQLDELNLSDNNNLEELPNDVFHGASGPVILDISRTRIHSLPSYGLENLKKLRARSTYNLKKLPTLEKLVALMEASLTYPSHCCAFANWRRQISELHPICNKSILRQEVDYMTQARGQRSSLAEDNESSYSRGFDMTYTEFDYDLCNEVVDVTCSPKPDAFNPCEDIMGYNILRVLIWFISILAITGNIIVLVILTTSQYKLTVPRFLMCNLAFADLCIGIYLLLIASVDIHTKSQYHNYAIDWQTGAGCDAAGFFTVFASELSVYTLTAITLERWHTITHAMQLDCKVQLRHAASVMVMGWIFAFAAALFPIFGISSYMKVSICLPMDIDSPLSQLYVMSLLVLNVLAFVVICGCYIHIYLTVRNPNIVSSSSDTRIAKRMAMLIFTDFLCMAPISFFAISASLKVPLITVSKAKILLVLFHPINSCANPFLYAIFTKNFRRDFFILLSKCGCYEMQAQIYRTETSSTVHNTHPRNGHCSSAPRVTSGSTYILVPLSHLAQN
Briefly: FSH receptor-dependent CRE-luciferase reporter gene assay (CHO FSH-R 6CRE-Luc, 1D7 cells). The class given is cell-based. Particulars: for IC50: dose-response format in presence of EC50 of purified human FSH. The method, then:
This procedure was used to identify and determine the relative potencies of human FSH receptor antagonists using a Chinese hamster ovarian cell line that stably produces the human FSH receptor and a luciferase reporter gene regulated by cAMP response elements.
The compounds were subsequently diluted in DMSO to working dilutions of 1 and 20 or 30 mM for 2-dose testing format and 1 μM-10 mM for dose-response format. The DMSO dilutions were diluted 500-fold in sterile growth medium [D-MEM/F-12 (GIBCO/BRL; Grand Island N.Y.) containing 15 mM HEPES, 2 mM 1-glutamine, pyridoxine hydrochloride, phenol red and 5% FetalClone II (HyClone Laboratories, Inc; Logan, Utah), 0.2% DMSO, 100 units penicillin G/ml, and 100 μg streptomycin sulfate/ml (GIBCO/BRL)]. The concentration of the vehicle in each of the compound dilutions was the same. POSITIVE CONTROLS: Purified human FSH (>98%) was purchased from Cortex Biochem, Inc. (San Leandro, Calif.) and a known FSH-R thiazolidinone antagonist was obtained from the Wyeth Research compound repository. Preparation of Cells
The CHO FSH-R 6CRE-Luc cells (1D7 cells) were obtained from Affymax (Palo Alto, Calif.). These Chinese hamster ovary cells (CHO-K1) were genetically engineered to stably express the recombinant human FSH receptor gene and a luciferase reporter gene under the regulation of 6 copies of a cAMP response element. The cells were plated one day prior to treatment into 96-well white opaque plates at a density of 50,000 cells/100 μl/well in growth medium. On the day of treatment, the growth medium was removed from the wells by aspiration and 50 µl of fresh growth medium was added to each well. The cells were incubated at 37° C. in a humidified incubator with 5% CO2/95% air.
The treated cells were incubated for 4 hours at 37° C. in a humidified incubator with 5% CO2/95% air. At the end of the incubation period, luciferase activity was measured by chemiluminescence using a commercially available kit (LucScreen, Tropix, Inc., Bedford, Mass.) according to the manufacturer's specifications, except that Buffer 1 and Buffer 2 were mixed together in equal proportion prior to the addition of 100 μl of the combined reagents to each well. Chemiluminescence was detected using a luminometer (EG & G Berthold Microlumat LB 96 P, Wallac, Gaithersburg, Md.) with chemiluminescence measured for 1 sec/well.
Background luminescence was measured for each well prior to the addition of the LucScreen reagent.
In the 96-well 2-dose format, each compound was tested in duplicate at each dose. […] One plate was used to test a maximum of 22 compounds.
The EC50 of purified human FSH alone was tested in triplicate with each test compound. The doses chosen to test each compound were extrapolated from the initial 2-dose screening process. Along with the test compounds, purified human FSH was also tested in a dose response (0.03, 0.1, 0.3, 1, 3, 10, and 30 ng/ml) for a positive control and quality control. One plate was used for 3 test compounds and the FSH positive control.
Luciferase activity is expressed as relative light units/sec/well. Luciferase activity in antagonist was compared to the appropriate negative and positive controls. For 2-dose testing, results are reported as luciferase activity and are expressed as % inhibition of the response obtained from the EC50 of FSH. For dose-response testing, results are reported as IC50 values. Data were analyzed statistically by one-way analysis of variance with appropriate weighting and transformation and relevant paired test as determined by Biometrics (Wyeth Research, Princeton, N.J.). IC50 values were calculated using the Stat/Excel program developed by Biometrics with appropriate weighting and transformation.
(In general: A reporter such as luciferase makes a cellular process visible.)

In the next data set the target is T2, hFSH-R (Homo sapiens, UniProt P23945).
T2 construct: expressed in transfected cells; host or cells: CHO-3D2 cells
T2 sequence (P23945 18-695): T1 sequence (P23945 18-695)
The experiment in a line: cAMP accumulation (RIA) in CHO-3D2 cells (hFSH-R), hFSH-induced. The class given is cell-based. The note with it: for Emax: read-out: cAMP % Efficacy. How it is done:
COMPOUND VEHICLE: Stock compounds were solubilized in 100% DMSO (Sigma Chemical Co.) at a concentration of 30 mM. The compounds were subsequently diluted in sterile assay medium consisting of Opti-MEM® I (Life Technologies) with 0.1% (w/v) BSA (Sigma), prior to use in the bio-assay. The final concentration of DMSO in the assay is 0.1%.
Plated cells are then incubated at 37° C. in a humidified 5% CO2/95% air, atmosphere.
On the day of the assay, cells were washed three times with 100 μl/well of assay medium consisting of Opti-MEM® I (Life Technologies) with 0.1% (w/v) BSA (Sigma). Medium was removed and 100 μl of assay medium was added to each well. Plates were incubated for an additional 30 minutes at 37° C. […] Reactions were terminated by the addition of 50 μl of 0.2N hydrochloric acid to each well and cAMP-accumulation was measured by radioimmunoassay (RIA) using a commercially available kit (Amersham).
All test compounds were evaluated in a dose-response paradigm ranging from about 0.01 to about 30 μM. Controls and test compounds were evaluated in quadruplicate in a 96-well format.
Along with the test compounds, FSH was also run as a positive control in the agonist mode using concentrations ranging from about 0.1-1000 ng/ml.
Data were analyzed by one-way analysis of variance and significant differences between treatments and control determined by Least Significant Difference test.
Test compounds were compared to the effect of purified human FSH.
In general terms: Changes in cAMP serve as a functional read-out for many G protein-coupled receptors.

A word on the melting point: it is the temperature of the solid-liquid transition. Molecule `Cc1ccccc1-c1ccc(C(=O)N2Cc3ccc(C(=O)NCc4csc(-c5ccc(Cl)cc5)n4)n3Cc3ccccc32)cc1C` [Example 11, N-{[2-(4-Chlorophenyl)-1,3-thiazol-4-yl]methyl}-10-[(2,2′-dimethyl-1,1′-biphenyl-4-yl)carbonyl]-10,11-dihydro-5H-pyrrolo[2,1-c][1,4]benzodiazepine-3-carboxamide] returned a melting point of 198 to 201 °C.

For orientation: IC50 means the midpoint of a concentration-inhibition curve. Molecule `Cc1cc(C(=O)N2Cc3ccc(C(=O)NCc4cccn4C)n3Cc3ccccc32)ccc1-c1c(C)cccc1C` [Example 8, N-[(1-Methyl-1H-pyrrol-2-yl)methyl]-10-[(2,2′,6′-trimethyl-1,1′-biphenyl-4-yl)carbonyl]-10,11-dihydro-5H-pyrrolo[2,1-c][1,4]benzodiazepine-3-carboxamide] yielded a melting point of 222 to 224 °C. The IC50 on human FSH receptor is above 30 µM.

Take `Cc1cc(CNC(=O)c2ccc3n2Cc2ccccc2N(C(=O)c2ccc(-c4c(C)cccc4C)c(C)c2)C3)no1` [Example 4, N-[(5-Methylisoxazol-3-yl)methyl]-10-[(2,2′,6′-trimethyl-1,1′-biphenyl-4-yl)carbonyl]-10,11-dihydro-5H-pyrrolo[2,1-c][1,4]benzodiazepine-3-carboxamide]: the melting point lay in the range of 233 to 234 °C. At human FSH receptor, the IC50 was above 30 µM.

As a reminder, the inhibition is the relative decrease from the control value, in per cent. `COc1ccccc1-c1ccc(C(=O)N2Cc3ccc(C(=O)NCC4CN(Cc5ccccc5)CCO4)n3Cc3ccccc32)cc1` (centres unmarked) [Example 7, N-[(4-Benzylmorpholin-2-yl)methyl]-10-[(2′-methoxy-1,1′-biphenyl-4-yl)carbonyl]-10,11-dihydro-5H-pyrrolo[2,1-c][1,4]benzodiazepine-3-carboxamide] had a melting point of 180 to 182 °C. Besides, the inhibition at 30 µM at human FSH receptor (2-dose format, test concentration 30 μM in parentheses, % inhibition of the response to EC50 of FSH) was found to be 26%.

Take `Cc1ccccc1-c1ccc(C(=O)N2Cc3ccc(C(=O)NCC4CCCNC4)n3Cc3ccccc32)cc1C` (centres unmarked) [Example 12, 10-[(2,2′-Dimethyl-1,1′-biphenyl-4-yl)carbonyl]-N-(piperidin-3-ylmethyl)-10,11-dihydro-5H-pyrrolo[2,1-c][1,4]benzodiazepine-3-carboxamide]: the IC50 at human FSH receptor is above 30 µM.

`COc1ccccc1-c1ccc(C(=O)N2Cc3ccc(C(=O)NCc4cccn4C)n3Cc3ccccc32)cc1` [Example 2, 10-[(2′-Methoxy-1,1′-biphenyl-4-yl)carbonyl]-N-[(1-methyl-1H-pyrrol-2-yl)methyl]-10,11-dihydro-5H-pyrrolo[2,1-c][1,4]benzodiazepine-3-carboxamide] returned a melting point of 148 to 150 °C. At hFSH-R, the IC50 turned out to be 1.2 µM and the Emax amounted to 79%. For the same molecule, at human FSH receptor, the IC50 was 42.6 µM.

`COc1ccc(-c2nc(CNC(=O)c3ccc4n3Cc3ccccc3N(C(=O)c3ccc(-c5ccccc5C)c(C)c3)C4)no2)cc1` [Example 10, 10-[(2,2′-Dimethyl-1,1′-biphenyl-4-yl)carbonyl]-N-{[5-(4-methoxyphenyl)-1,2,4-oxadiazol-3-yl]methyl}-10,11-dihydro-5H-pyrrolo[2,1-c][1,4]benzodiazepine-3-carboxamide] came in with a melting point of 133 to 135 °C.

For `COc1ccccc1-c1ccc(C(=O)N2Cc3ccc(C(=O)NCc4cc(C)oc4C)n3Cc3ccccc32)cc1` [Example 6, N-[(2,5-Dimethyl-3-furyl)methyl]-10-[(2′-methoxy-1,1′-biphenyl-4-yl)carbonyl]-10,11-dihydro-5H-pyrrolo[2,1-c][1,4]benzodiazepine-3-carboxamide], on hFSH-R, the IC50 turned out to be 0.3 µM and the Emax came to 81%. The IC50 at human FSH receptor was 3.3 µM.

In turn, `COc1ccccc1-c1ccc(C(=O)N2Cc3ccc(C(=O)NCc4cc(C)on4)n3Cc3ccccc32)cc1` [Example 5, 10-[(2′-Methoxy-1,1′-biphenyl-4-yl)carbonyl]-N-[(5-methylisoxazol-3-yl)methyl]-10,11-dihydro-5H-pyrrolo[2,1-c][1,4]benzodiazepine-3-carboxamide] had a melting point of 111 to 113 °C. Besides, at hFSH-R, the IC50 turned out to be 0.6 µM and the Emax was 96%. Also, the IC50 on human FSH receptor is 10.2 µM.
